From US11541083B2, “Methods and probiotic compositions for the treatment of bone disorders” (Research Development Foundation, priority 2018, dated 2023)

Tested on: ovariectomized mice
Assay: 3-point bending biomechanical test on femur of ovariectomized mice after single microbe transplantation
Type: in vivo
Method: Animals: All C57BL/6J mice were purchased from Janvier Labs, and kept in a specific pathogen-free (SPF) facility in individually ventilated cages. All the mice were in a 12 h day/night cycle and fed a standard chow diet (16.2 MJ/kg Gross Energy; 9 kJ % Fat, 33 kJ % Protein, 58 kJ % Carbohydrates, V1534-727, Ssniff, Germany). All the mice were either male and entered the experiment at 8 weeks of age, or female starting at 16 weeks of age (for the ovariectomy experiment). Acclimatized animals were allocated into groups based on their body weight to ensure equal starting points. Warmth exposure was done at 34° C. in a light and humidity-controlled climatic chamber (TSE, Germany) in SPF conditions using individually ventilated cages All mice were sacrificed after 5 h fasting. Bone samples for CT-scan and biomecanics analysis were stored in a humid package at −20° C. All animal experiments were approved by the Swiss federal and Geneva cantonal authorities for animal experimentation (Office Vétérinaire Fédéral and Commission Cantonale pour les Expériences sur les animaux de Genève).
Ovariectomy: Mice were anesthetised with Xylazin/Ketamin (injection of 120 μl of a mixture of 120 mg/kg ketamine and 16 mg/kg xylazine) and shaved below the ribs on the back side. Betadine was applied to the area for appropriate disinfection. After a 1-2 cm incision through the skin and the muscle layer just below the ribs, the ovary was localized, the fallopian tube ligated with dissolving suture and the ovary removed. […]
Biomechanical analysis of the bones: We used a 3-points bending test to measure biomechanical parameters of the bone. […] Mechanical resistance to failure (displacement and load applied) was measured using a servo-controlled electromechanical system (Instron 1114, Instron corp., High Wycombe, UK) with actuator displaced at 2 mm/minute. Ultimate force (maximal load, measured in Newtons [N]), Yield point (N), stiffness (elastic energy, N/mm), and energy to fracture (surface under the curve of the plastic region, N*mm) were calculated. Young's modulus (MPa) was determined.

[1] = gavage every second day for 2 month, starting 3 days post-surgery

Lactobacillus reuteri
increased displacement (post-yield displacement), femur [1]: reduce or prevent | reduction in ultimate force (ultimate strength), femur [1]: reduce or prevent the reduction | bone fragility induced by ovariectomy (legend of FIGS. 7A-C, overall statement): can reduce or prevent
